Assay results: patent US12129237B2, “Substituted diaminocarboxamide and diaminocarbonitrile pyrimidines, compositions thereof, and methods of treatment therewith” (SIGNAL PHARMACEUTICALS, LLC, priority 2011, dated 2024)

target: T1, JNK1 (Homo sapiens, UniProt P45983); assay: JNK1 biochemical assays (one or more of: time resolved fluorescence, Z'-LYTE Cascade, radioactive); conditions: Table 2; JNK1 IC50 activity level; read-out: Act. Level
T1 construct: purchased Carna Biosciences
T1 sequence (P45983 whole entry): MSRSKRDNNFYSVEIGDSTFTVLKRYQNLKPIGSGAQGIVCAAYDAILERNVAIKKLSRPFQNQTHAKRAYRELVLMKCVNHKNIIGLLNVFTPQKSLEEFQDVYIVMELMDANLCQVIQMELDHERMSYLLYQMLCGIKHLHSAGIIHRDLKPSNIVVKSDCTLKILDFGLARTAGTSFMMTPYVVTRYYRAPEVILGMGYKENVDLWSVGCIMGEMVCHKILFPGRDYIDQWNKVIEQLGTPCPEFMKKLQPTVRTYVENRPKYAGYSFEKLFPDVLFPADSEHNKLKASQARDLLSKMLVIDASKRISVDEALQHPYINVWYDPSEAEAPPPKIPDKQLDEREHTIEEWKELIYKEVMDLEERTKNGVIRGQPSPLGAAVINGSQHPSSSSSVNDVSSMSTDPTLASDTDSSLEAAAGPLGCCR

IC50 [nM] | Compound
1000 to 10000 | CN(C)CCNc1ncc(C(N)=O)c(Nc2ccccc2)n1 [Example B-61, 2-(2-(dimethylamino)ethylamino)-4-(phenylamino)pyrimidine-5-carboxamide]
< 200 | CC(C)Nc1nc(N[C@@H]2CCc3cnccc3C2)ncc1C(N)=O [Example B-92, (R)-4-(isopropylamino)-2-(5,6,7,8-tetrahydroisoquinolin-6-ylamino)pyrimidine-5-carboxamide]
1000 to 10000 | NC(=O)c1cnc(NCc2ccco2)nc1Nc1ccccc1 [Example B-65, 2-(furan-2-ylmethylamino)-4-(phenylamino)pyrimidine-5-carboxamide]

same assay, conditions: Table 3; JNK1 IC50 activity level; read-out: Act. Level

IC50 [nM] | Compound
1000 to 10000 | CC(C)CNc1nc(N[C@H]2CC[C@H](O)CC2)ncc1C#N [Example C-55, 2-((1r,4r)-4-hydroxycyclohexylamino)-4-(isobutylamino)pyrimidine-5-carbonitrile]
< 200 | CN[C@H]1CC[C@H](Nc2ncc(C#N)c(N[C@@H]3CCC[C@H](O)C3)n2)CC1 [Example C-11, 4-((1R,3S)-3-hydroxycyclohexylamino)-2-((1r,4R)-4-(methylamino)cyclohexylamino) pyrimidine-5-carbonitrile]
1000 to 10000 | CC(C)CCNc1nc(N[C@H]2CC[C@H](O)CC2)ncc1C#N [Example C-60, 2-((1r,4r)-4-hydroxycyclohexylamino)-4-(isopentylamino)pyrimidine-5-carbonitrile]
200 to 800 | CCO[C@H]1CC[C@H](Nc2ncc(C#N)c(N[C@H]3CCC[C@@H](O)C3)n2)CC1 [Example C-1, 2-((1r,4S)-4-ethoxycyclohexylamino)-4-((1S,3R)-3-hydroxycyclohexylamino) pyrimidine-5-carbonitrile]

same assay, conditions: one or more of the JNK1 biochemical assays; read-out: Act. Level (JNK1 IC50 activity level)

IC50 [nM] | Compound
< 200 | NC(=O)c1cnc(N[C@H]2CCCOC2)nc1NC12CC(C1)C2 [Example 405, (S)-4-(bicyclo[1.1.1]pentan-1-ylamino)-2-(tetrahydro-2H-pyran-3-ylamino)pyrimidine-5-carboxamide]
< 200 | CC(C)Nc1ncc(C(N)=O)c(N[C@@H]2CCC[C@](C)(O)C2)n1 [Example 338, 4-((1R,3S)-3-hydroxy-3-methylcyclohexylamino)-2-(isopropylamino)pyrimidine-5-carboxamide]
< 200 | CCO[C@H]1CC[C@H](Nc2ncc(C(N)=O)c(NC3(C)CCCC3)n2)CC1 [Example 488, 2-((1r,4r)-4-ethoxycyclohexylamino)-4-(1-methylcyclopentylamino)pyrimidine-5-carboxamide]
< 200 | CC(C)(C)CNc1nc(N[C@H]2CC[C@H](O)CC2)ncc1C(N)=O [Example 228, 2-((1r,4r)-4-hydroxycyclohexylamino)-4-(neopentylamino)pyrimidine-5-carboxamide]
< 200 | CC1(Nc2ncc(C(N)=O)c(N[C@@H]3CCCC[C@H](O)C3)n2)CCC1 [Example 352, 4-((1R,3S)-3-hydroxycycloheptylamino)-2-(1-methylcyclobutylamino)pyrimidine-5-carboxamide]
< 200 | C[C@@H]1CC[C@@H](Nc2nc(NC34CC(C(C)(C)C)(C3)C4)ncc2C(N)=O)C[C@H]1O [Example 489, 2-(3-tert-butylbicyclo[1.1.1]pentan-1-ylamino)-4-((1R,3R,4R)-3-hydroxy-4-methylcyclohexylamino)pyrimidine-5-carboxamide]
< 200 | CC1(C)CCC(Nc2nc(NC3CCC3)ncc2C(N)=O)CC1O (stereo not shown) [Example 429, 2-(cyclobutylamino)-4-(3-hydroxy-4,4-dimethylcyclohexylamino)pyrimidine-5-carboxamide]
< 200 | CCO[C@H]1CC[C@H](Nc2ncc(C(N)=O)c(NC3C4CC3C4)n2)CC1 (stereo partly shown) [Example 476, 4-(bicyclo[1.1.1]pentan-2-ylamino)-2-((1r,4r)-4-ethoxycyclohexylamino)pyrimidine-5-carboxamide]
< 200 | CC(C)(Nc1nc(N[C@@H]2CCC[C@H](O)C2)ncc1C(N)=O)C1CC1 [Example 466, 4-(2-cyclopropylpropan-2-ylamino)-2-((1R,3S)-3-hydroxycyclohexylamino)pyrimidine-5-carboxamide]
< 200 | NC(=O)c1cnc(N[C@H]2CC[C@H](O)CC2)nc1NCC1CCC1 [Example 221, 4-(cyclobutylmethylamino)-2-((1r,4r)-4-hydroxycyclohexylamino)pyrimidine-5-carboxamide]
< 200 | C[C@@H]1CC[C@@H](Nc2nc(NC(C)(C)C3CC3)ncc2C(N)=O)C[C@H]1O [Example 397, 2-(2-cyclopropylpropan-2-ylamino)-4-((1R,3R,4R)-3-hydroxy-4-methylcyclohexylamino)pyrimidine-5-carboxamide]
< 200 | CCO[C@H]1CC[C@H](Nc2ncc(C(N)=O)c(NC34CC(C3)C4)n2)CC1 [Example 344, 4-(bicyclo[1.1.1]pentan-1-ylamino)-2-((1r,4r)-4-ethoxycyclohexylamino)pyrimidine-5-carboxamide]

same assay, conditions: tested in one or more of the JNK1 biochemical assays; read-out: Act. Level (JNK1 biochemical assay IC50 activity level)

IC50 [nM] | Compound
< 200 | CO[C@H]1CC[C@H](Nc2ncc(C(N)=O)c(NC3CCCC3)n2)CC1 [Example A-190, 4-(cyclopentylamino)-2-((1r,4r)-4-methoxycyclohexylamino)pyrimidine-5-carboxamide]
< 200 | NC(=O)c1cnc(N[C@H]2CC[C@H](OCC(F)(F)F)CC2)nc1N[C@@H]1CCCOC1 [Example A-188, 4-((R)-tetrahydro-2H-pyran-3-ylamino)-2-((1r,4R)-4-(2,2,2-trifluoroethoxy)cyclohexylamino)pyrimidine-5-carboxamide]
< 200 | CCO[C@H]1CCC[C@@H]1Nc1nc(N[C@H]2CC[C@H](OCC)CC2)ncc1C(N)=O [Example A-73, 2-((1r,4S)-4-ethoxycyclohexylamino)-4-((1S,2S)-2-ethoxycyclopentylamino)pyrimidine-5-carboxamide]
< 200 | CC(C)Nc1ncc(C(N)=O)c(N[C@@H]2CCC[C@H](O)C2)n1 [Example A-51, 4-((1R,3S)-3-hydroxycyclohexylamino)-2-(isopropylamino)pyrimidine-5-carboxamide]
< 200 | CO[C@H]1CCC[C@H](Nc2ncc(C(N)=O)c(N[C@@H]3CCC[C@H](O)C3)n2)CC1 [Example A-200, 4-((1R,3S)-3-hydroxycyclohexylamino)-2-((1S,4S)-4-methoxycycloheptylamino)pyrimidine-5-carboxamide]
< 200 | CC(C)(O)[C@H]1CC[C@@H](Nc2nc(NC3CCOCC3)ncc2C(N)=O)CC1 [Example A-111, 4-((1s,4s)-4-(2-hydroxypropan-2-yl)cyclohexylamino)-2-(tetrahydro-2H-pyran-4-ylamino)pyrimidine-5-carboxamide]
< 200 | C[C@]1(O)CCC[C@@H](Nc2nc(N[C@H]3CC[C@H](OC(F)F)CC3)ncc2C(N)=O)C1 [Example A-170, 2-((1r,4R)-4-(difluoromethoxy)cyclohexylamino)-4-((1R,3S)-3-hydroxy-3-methylcyclohexylamino)pyrimidine-5-carboxamide]
< 200 | CCO[C@H]1CC[C@H](Nc2ncc(C(N)=O)c(N[C@@H]3CCCOC3)n2)CC1 [Example A-72, 2-((1r,4R)-4-ethoxycyclohexylamino)-4-((R)-tetrahydro-2H-pyran-3-ylamino)pyrimidine-5-carboxamide]
< 200 | CCO[C@H]1CC[C@H](Nc2ncc(C(N)=O)c(N[C@H]3CCOC3)n2)CC1 [Example A-105, 2-((1r,4S)-4-ethoxycyclohexylamino)-4-((S)-tetrahydrofuran-3-ylamino)pyrimidine-5-carboxamide]
